Source: US20200046703A1, “COMPOSITIONS AND METHODS FOR TREATMENT OF THE SIDE-EFFECTS ASSOCIATED WITH ADMINISTRATION OF THERAPEUTIC AGENTS” (ASYMMETRIC THERAPEUTICS, LLC, priority 2018, published 2020)
In brackets after ≈: the same amount, converted by molar mass.

Experiments:
proliferating HGEP cells = assay: Proliferating HGEP cell viability with/without 5-FU; assay type: cell-based, human; details: for relative cell viability (AVG): 120 hours
Procedure: In one set of experiments, the results of which are shown in Table 1, proliferating HGEP cells, commonly used to assess oral mucosal toxicity, were exposed to the clinically-relevant dose of 10 μM of 5-FU and different concentrations of oxypurinol, either alone or with different concentrations of adenine or uracil, using standard tissue culture methods and incubated at 37° C. Oxypurinol concentrations of 0.03 mM, 0.1 mM, and 0.3 mM were tested. Adenine and uracil concentrations of 0.1 mM and 0.3 mM were tested. The relative viability of the cells was determined after 120 hours.

proliferating HPEK cells = assay: Proliferating HPEK cell viability with/without 5-FU; assay type: cell-based, human; details: for relative cell viability (AVG): 120 hours; for Relative Protection against 5-FU toxicity / Relative Growth in the presence of 5-FU: HPEK proliferating cells; for Relative Protection against 5-FU toxicity: fraction of viability loss prevented; for Relative Growth in the presence of 5-FU: viability with 5-FU divided by viability without 5-FU
Procedure: In another set of experiments, the results of which are shown in Table 2, proliferating HPEK cells, commonly used to assess skin tissue toxicity, were exposed to the clinically-relevant dose of 10 μM of 5-FU and different concentrations of oxypurinol, either alone or with different concentrations of adenine or uracil, using standard tissue culture methods and incubated at 37° C. Oxypurinol concentrations of 0.03 mM, 0.1 mM, and 0.3 mM were tested. Adenine and uracil concentrations of 0.1 mM and 0.3 mM were tested. The relative viability of the cells was determined after 120 hours.

confluent HPEK cells = assay: Confluent HPEK cell viability with/without 5-FU; assay type: cell-based, human; details: for relative cell viability (AVG): 120 hours; for Relative Protection against 5-FU toxicity / Relative Growth in the presence of 5-FU: HPEK confluent cells; for Relative Protection against 5-FU toxicity: fraction of viability loss prevented; for Relative Growth in the presence of 5-FU: viability with 5-FU divided by viability without 5-FU
Procedure: Oxypurinol and allopurinol concentrations of 0.3 mM, 1.0 mM, and 3.0 mM, which are ten times higher than those used in the first set of experiments, were tested. An adenine concentration of 0.3 mM, which was the higher concentration used in the first set of experiments, was tested. The relative viability of the cells was determined after 120 hours.

confluent NHEK cells = assay: Confluent NHEK cell viability with/without 5-FU; assay type: cell-based, human; details: for relative cell viability (AVG): 120 hours; for Relative Protection against 5-FU toxicity: fraction of viability loss prevented
Procedure: In yet another set of experiments, the results of which are shown in Table 4, confluent NHEK cells were exposed to the clinically-relevant dose of 10 μM of 5-FU and different concentrations of sodium hydroxide, oxypurinol, or allopurinol using standard tissue culture methods and incubated at 37° C. Sodium hydroxide concentrations of 1 mM, 2 mM, 3 mM, and 4 mM were tested. Oxypurinol and allopurinol concentrations of 0.1 mM, 0.3 mM, 1.0 mM, and 3.0 mM were tested, both in the presence and in the absence of 10 μM of 5-FU. The relative viability of the cells was determined after 120 hours. The sodium hydroxide trials were only performed to serve as a control.

Solubility of oxypurinol = assay type: physicochemical; details: in vitro; in the protective formulation; read-out: maximum in vitro solubility / upper limit of solubility
marrow cells = details: about a 30-fold excess; in patients; cited from earlier work
[1] = concentrations of 0.1 mM and 0.3 mM
[2] = 0.3 mM, with 5-FU 10 μM, listed as oxypurinol
[3] = 1.0 mM, with 5-FU 10 μM, listed as oxypurinol
[4] = 3.0 mM, with 5-FU 10 μM, listed as oxypurinol

Nc1ncnc2nc[nH]c12 [Adenine, adenine, reference compound]
relative cell viability (AVG) (proliferating HGEP cells; 0.1 mM, with 5-FU 10 μM): 0.7549 | relative cell viability (AVG) (proliferating HGEP cells; 0.3 mM, with 5-FU 10 μM): 0.6389 | relative cell viability (AVG) (proliferating HPEK cells; 0.1 mM, with 5-FU 10 μM): 0.6214 | relative cell viability (AVG) (proliferating HPEK cells; 0.3 mM, with 5-FU 10 μM): 0.5985 | relative cell viability (AVG) (confluent HPEK cells; 0.3 mM, no 5-FU): 1.3784 | relative cell viability (AVG) (confluent HPEK cells; 0.3 mM, with 5-FU 10 μM): 0.7456

O=c1nc2[nH][nH]cc-2c(=O)[nH]1 [Oxypurinol, oxypurinol]
relative cell viability (AVG) (proliferating HGEP cells; 0.03 mM, no 5-FU): 0.8792 | relative cell viability (AVG) (proliferating HGEP cells; 0.03 mM, with 5-FU 10 μM): 0.6441 | relative cell viability (AVG) (proliferating HGEP cells; 0.1 mM, no 5-FU): 0.7134 | relative cell viability (AVG) (proliferating HGEP cells; 0.1 mM, with 5-FU 10 μM): 0.7540 | relative cell viability (AVG) (proliferating HGEP cells; 0.3 mM, no 5-FU): 0.6367 | relative cell viability (AVG) (proliferating HGEP cells; 0.3 mM, with 5-FU 10 μM): 0.8925 | effect on cell viability in the absence of 5-FU (proliferating HGEP cells; 0.03 to 0.3 mM): negative effect | effect on cell viability in the presence of 5-FU (proliferating HGEP cells; [1]): protective effect | relative cell viability (AVG) (proliferating HPEK cells; 0.03 mM, no 5-FU): 1.0763 | relative cell viability (AVG) (proliferating HPEK cells; 0.03 mM, with 5-FU 10 μM): 0.6903 | relative cell viability (AVG) (proliferating HPEK cells; 0.1 mM, no 5-FU): 0.7961 | relative cell viability (AVG) (proliferating HPEK cells; 0.1 mM, with 5-FU 10 μM): 0.7961 | relative cell viability (AVG) (proliferating HPEK cells; 0.3 mM, no 5-FU): 1.0201 | relative cell viability (AVG) (proliferating HPEK cells; 0.3 mM, with 5-FU 10 μM): 0.8635 | Relative Protection against 5-FU toxicity (proliferating HPEK cells; 0.03 mM): 0.1133 | Relative Growth in the presence of 5-FU (proliferating HPEK cells; 0.03 mM): 0.6414 | Relative Protection against 5-FU toxicity (proliferating HPEK cells; 0.1 mM): 0.4163 | Relative Growth in the presence of 5-FU (proliferating HPEK cells; 0.1 mM): 1.0000 | Relative Protection against 5-FU toxicity (proliferating HPEK cells; 0.3 mM): 0.6092 | Relative Growth in the presence of 5-FU (proliferating HPEK cells; 0.3 mM): 0.8465 | effect on cell viability in the presence of 5-FU (proliferating HPEK cells; [1]): protective effect | effect on cell viability in the absence of 5-FU (proliferating HPEK cells; range of 0.03 mM to 0.3 mM): minimal effect | relative cell viability (AVG) (confluent HPEK cells; 0.3 mM, no 5-FU): 1.0183 | relative cell viability (AVG) (confluent HPEK cells; 0.3 mM, with 5-FU 10 μM): 0.7226 | relative cell viability (AVG) (confluent HPEK cells; [2]): 0.72 | relative cell viability (AVG) (confluent HPEK cells; 1.0 mM, no 5-FU): 1.0706 | relative cell viability (AVG) (confluent HPEK cells; 1.0 mM, no 5-FU, listed as oxypurinol): 1.07 | relative cell viability (AVG) (confluent HPEK cells; 1.0 mM, with 5-FU 10 μM): 0.7509 | relative cell viability (AVG) (confluent HPEK cells; [3]): 0.75 | relative cell viability (AVG) (confluent HPEK cells; 3.0 mM, no 5-FU): 0.8351 | relative cell viability (AVG) (confluent HPEK cells; 3.0 mM, no 5-FU, listed as oxypurinol): 0.835 | relative cell viability (AVG) (confluent HPEK cells; 3.0 mM, with 5-FU 10 μM): 0.8147 | relative cell viability (AVG) (confluent HPEK cells; [4]): 0.81 | protection from 5-FU toxicity compared with allopurinol (confluent HPEK cells; HPEK cells, FIG. 1, across the range of tested concentrations): significantly better | Relative Protection against 5-FU toxicity (confluent HPEK cells; 0.3 mM): 0.2249 | Relative Growth in the presence of 5-FU (confluent HPEK cells; 0.3 mM): 0.7096 | Relative Protection against 5-FU toxicity (confluent HPEK cells; 1.0 mM): 0.3039 | Relative Growth in the presence of 5-FU (confluent HPEK cells; 1.0 mM): 0.7013 | Relative Protection against 5-FU toxicity (confluent HPEK cells; 3.0 mM): 0.4822 | Relative Growth in the presence of 5-FU (confluent HPEK cells; 3.0 mM): 0.9755 | oxypurinol toxicity (confluent HPEK cells; HPEK, up to about 3 mM): no evidence of oxypurinol toxicity | effect on cell viability in the presence of 5-FU (confluent HPEK cells; concentration range of 0.3 mM to 3.0 mM): protective effect | preservation of growth, with versus without 5-FU (confluent HPEK cells; oxypurinol at 3 mM, 5-FU 10 μM): 97.5% | effect on cell viability in the presence of 5-FU (confluent NHEK cells; 0.1 mM to 3.0 mM): protective effect | relative cell viability (AVG) (confluent NHEK cells; 0.1 mM, no 5-FU): 0.8884 | relative cell viability (AVG) (confluent NHEK cells; 0.1 mM, with 5-FU 10 μM): 0.5818 | relative cell viability (AVG) (confluent NHEK cells; 0.1 mM, with 5-FU 10 μM, listed as oxypurinol): 0.58 | relative cell viability (AVG) (confluent NHEK cells; 0.3 mM, no 5-FU): 0.9059 | relative cell viability (AVG) (confluent NHEK cells; 0.3 mM, with 5-FU 10 μM): 0.5881 | relative cell viability (AVG) (confluent NHEK cells; [2]): 0.59 | relative cell viability (AVG) (confluent NHEK cells; 1.0 mM, no 5-FU): 0.9580 | relative cell viability (AVG) (confluent NHEK cells; 1.0 mM, with 5-FU 10 μM): 0.5965 | relative cell viability (AVG) (confluent NHEK cells; [3]): 0.60 | Relative Growth in the presence of 5-FU (confluent NHEK cells; 3.0 mM, NHEK, FIG. 2): over 73% | relative cell viability (AVG) (confluent NHEK cells; 3.0 mM, no 5-FU): 0.9784 | relative cell viability (AVG) (confluent NHEK cells; 3.0 mM, with 5-FU 10 μM): 0.7165 | relative cell viability (AVG) (confluent NHEK cells; [4]): 0.72 | protection from 5-FU toxicity compared with allopurinol (confluent NHEK cells; NHEK cells, FIG. 2, across the range of tested concentrations): significantly better | Relative Protection against 5-FU toxicity (confluent NHEK cells; NHEK, 0.1 mM): 0.2834 | Relative Growth in the presence of 5-FU (confluent NHEK cells; NHEK, 0.1 mM, viability with 5-FU divided by viability without 5-FU): 0.6549 | Relative Protection against 5-FU toxicity (confluent NHEK cells; NHEK, 0.3 mM): 0.2941 | Relative Growth in the presence of 5-FU (confluent NHEK cells; NHEK, 0.3 mM, viability with 5-FU divided by viability without 5-FU): 0.6492 | Relative Protection against 5-FU toxicity (confluent NHEK cells; NHEK, 1.0 mM): 0.3085 | Relative Growth in the presence of 5-FU (confluent NHEK cells; NHEK, 1.0 mM, viability with 5-FU divided by viability without 5-FU): 0.6226 | Relative Protection against 5-FU toxicity (confluent NHEK cells; NHEK, 3.0 mM): 0.5142 | Relative Growth in the presence of 5-FU (confluent NHEK cells; NHEK, 3.0 mM, viability with 5-FU divided by viability without 5-FU): 0.7323 | oxypurinol toxicity (confluent NHEK cells; NHEK, up to about 3 mM): no evidence of oxypurinol toxicity | effect on cell viability in the absence of 5-FU (confluent NHEK cells; range of 0.1 mM to 3.0 mM): small negative effect | solubility (Solubility of oxypurinol): ~3000 µM (≈ 456 µg/mL) | protection of marrow cells from 5-FU toxicity (marrow cells): completely protect marrow cells from 5-FU toxicity

O=c1cc[nH]c(=O)[nH]1 [Uracil, uracil, reference compound]
relative cell viability (AVG) (proliferating HGEP cells; 0.1 mM, with 5-FU 10 μM): 0.6060 | relative cell viability (AVG) (proliferating HGEP cells; 0.3 mM, with 5-FU 10 μM): 0.5182 | relative cell viability (AVG) (proliferating HPEK cells; 0.1 mM, with 5-FU 10 μM): 0.6479 | relative cell viability (AVG) (proliferating HPEK cells; 0.3 mM, with 5-FU 10 μM): 0.6350 | relative cell viability (AVG) (confluent HPEK cells; 0.3 mM, no 5-FU): 1.3781 | relative cell viability (AVG) (confluent HPEK cells; 0.3 mM, with 5-FU 10 μM): 0.6482
